Laboratory results taken from US12357652B2, “Formulations of phosphoramidate derivatives of nucleoside drugs” (priority 2015, dated 2025).

What was measured:
[1] = test system: cancer; experiment: Clinical trial of NUC-3373; assay type: in vivo; details: infusion solutions prepared as in Example 3; early results
Description: In a clinical trial of NUC-3373, this administration methodology has allowed NUC-3373 to be successfully administered via a CVAD.

[2] = Stability of NUC-3373 aqueous infusion solution in 250 ml 0.9% saline bags; assay type: physicochemical
Method: The stability of the aqueous infusion solution was also evaluated using three different doses of NUC-3373 (1,000 mg, 2,000 mg and 3,000 mg) diluted in 250 ml 0.9% saline bags at two storage conditions (5° C. and 20° C.).

[3] = 1,000 mg NUC-3373 in 250 ml 0.9% saline infusion bag, 0 hours, 5° C.
[4] = 1,000 mg NUC-3373 in 250 ml 0.9% saline infusion bag, 0 hours, 20° C.
[5] = 1,000 mg NUC-3373 in 250 ml 0.9% saline infusion bag, 8 hours, 5° C.
[6] = 1,000 mg NUC-3373 in 250 ml 0.9% saline infusion bag, 8 hours, 20° C.
[7] = 1,000 mg NUC-3373 in 250 ml 0.9% saline infusion bag, 24 hours, 5° C.
[8] = 1,000 mg NUC-3373 in 250 ml 0.9% saline infusion bag, 24 hours, 20° C.
[9] = 1,000 mg NUC-3373 in 250 ml 0.9% saline infusion bag, 48 hours, 5° C.
[10] = 1,000 mg NUC-3373 in 250 ml 0.9% saline infusion bag, 48 hours, 20° C.
[11] = 2,000 mg NUC-3373 in 250 ml 0.9% saline infusion bag, 0 hours, 5° C.
[12] = 2,000 mg NUC-3373 in 250 ml 0.9% saline infusion bag, 0 hours, 20° C.
[13] = 2,000 mg NUC-3373 in 250 ml 0.9% saline infusion bag, 8 hours, 5° C.
[14] = 2,000 mg NUC-3373 in 250 ml 0.9% saline infusion bag, 8 hours, 20° C.
[15] = 2,000 mg NUC-3373 in 250 ml 0.9% saline infusion bag, 24 hours, 5° C.
[16] = 2,000 mg NUC-3373 in 250 ml 0.9% saline infusion bag, 24 hours, 20° C.
[17] = 2,000 mg NUC-3373 in 250 ml 0.9% saline infusion bag, 48 hours, 5° C.
[18] = 2,000 mg NUC-3373 in 250 ml 0.9% saline infusion bag, 48 hours, 20° C.
[19] = 3,000 mg NUC-3373 in 250 ml 0.9% saline infusion bag, 0 hours, 5° C.
[20] = 3,000 mg NUC-3373 in 250 ml 0.9% saline infusion bag, 0 hours, 20° C.
[21] = 3,000 mg NUC-3373 in 250 ml 0.9% saline infusion bag, 8 hours, 5° C.
[22] = 3,000 mg NUC-3373 in 250 ml 0.9% saline infusion bag, 8 hours, 20° C.
[23] = 3,000 mg NUC-3373 in 250 ml 0.9% saline infusion bag, 24 hours, 5° C.
[24] = 3,000 mg NUC-3373 in 250 ml 0.9% saline infusion bag, 24 hours, 20° C.
[25] = 3,000 mg NUC-3373 in 250 ml 0.9% saline infusion bag, 48 hours, 5° C.
[26] = 3,000 mg NUC-3373 in 250 ml 0.9% saline infusion bag, 48 hours, 20° C.

C[C@H](NP(=O)(OC[C@H]1O[C@@H](n2cc(F)c(=O)[nH]c2=O)CC1O)Oc1cccc2ccccc12)C(=O)OCc1ccccc1 (stereo partly drawn) [NUC-3373, 5-fluoro-2′-deoxyuridine-5′-O-[1-naphthyl (benzoxy-L-alaninyl)] phosphate]
Efficacy in treating cancer [1]: some efficacy in treating cancer | Assay content NUC-3373 [2, 3]: 3.7 mg/mL | Osmolarity [2, 3]: 457 mosm/L H20 | Purity [2, 3]: 96.2 % area | Total NUC-3373 [2, 3]: 960.9 mg | pH [2, 3]: 5.5 | Assay content NUC-3373 [2, 4]: 3.9 mg/mL | Osmolarity [2, 4]: 462 mosm/L H20 | Purity [2, 4]: 96.1 % area | Total NUC-3373 [2, 4]: 1012.8 mg | pH [2, 4]: 5.6 | Assay content NUC-3373 [2, 5]: 3.6 mg/mL | Osmolarity [2, 5]: 450 mosm/L H20 | Purity [2, 5]: 96.1 % area | Total NUC-3373 [2, 5]: 934.9 mg | pH [2, 5]: 5.6 | Assay content NUC-3373 [2, 6]: 3.7 mg/mL | Osmolarity [2, 6]: 459 mosm/L H20 | Purity [2, 6]: 96.1 % area | Total NUC-3373 [2, 6]: 960.9 mg | pH [2, 6]: 5.5 | Assay content NUC-3373 [2, 7]: 3.6 mg/mL | Osmolarity [2, 7]: 456 mosm/L H20 | Purity [2, 7]: 96.1 % area | Total NUC-3373 [2, 7]: 934.9 mg | pH [2, 7]: 5.6 | Assay content NUC-3373 [2, 8]: 3.7 mg/mL | Osmolarity [2, 8]: 462 mosm/L H20 | Purity [2, 8]: 96.1 % area | Total NUC-3373 [2, 8]: 960.9 mg | pH [2, 8]: 5.8 | Assay content NUC-3373 [2, 9]: 3.6 mg/mL | Osmolarity [2, 9]: 451 mosm/L H20 | Purity [2, 9]: 96.2 % area | Total NUC-3373 [2, 9]: 934.9 mg | pH [2, 9]: 5.5 | Assay content NUC-3373 [2, 10]: 3.8 mg/mL | Osmolarity [2, 10]: 455 mosm/L H20 | Purity [2, 10]: 96.1 % area | Total NUC-3373 [2, 10]: 986.9 mg | pH [2, 10]: 5.5 | Assay content NUC-3373 [2, 11]: 7.2 mg/mL | Osmolarity [2, 11]: 639 mosm/L H20 | Purity [2, 11]: 96.1 % area | Total NUC-3373 [2, 11]: 1946 mg | pH [2, 11]: 5.5 | Assay content NUC-3373 [2, 12]: 7.4 mg/mL | Osmolarity [2, 12]: 646 mosm/L H20 | Purity [2, 12]: 96.1 % area | Total NUC-3373 [2, 12]: 2000 mg | pH [2, 12]: 5.5 | Assay content NUC-3373 [2, 13]: 7.0 mg/mL | Osmolarity [2, 13]: 637 mosm/L H20 | Purity [2, 13]: 96.2 % area | Total NUC-3373 [2, 13]: 1892 mg | pH [2, 13]: 5.5 | Assay content NUC-3373 [2, 14]: 7.5 mg/mL | Osmolarity [2, 14]: 633 mosm/L H20 | Purity [2, 14]: 96.1 % area | Total NUC-3373 [2, 14]: 2027 mg | pH [2, 14]: 5.5 | Assay content NUC-3373 [2, 15]: 6.9 mg/mL | Osmolarity [2, 15]: 638 mosm/L H20 | Purity [2, 15]: 96.1 % area | Total NUC-3373 [2, 15]: 1865 mg | pH [2, 15]: 5.5 | Assay content NUC-3373 [2, 16]: 7.2 mg/mL | Osmolarity [2, 16]: 639 mosm/L H20 | Purity [2, 16]: 96.1 % area | Total NUC-3373 [2, 16]: 1946 mg | pH [2, 16]: 5.5 | Assay content NUC-3373 [2, 17]: 7.0 mg/mL | Osmolarity [2, 17]: 635 mosm/L H20 | Purity [2, 17]: 96.1 % area | Total NUC-3373 [2, 17]: 1892 mg | pH [2, 17]: 5.4 | Assay content NUC-3373 [2, 18]: 7.1 mg/mL | Osmolarity [2, 18]: 632 mosm/L H20 | Purity [2, 18]: 96.1 % area | Total NUC-3373 [2, 18]: 1919 mg | pH [2, 18]: 5.4 | Assay content NUC-3373 [2, 19]: 10.2 mg/mL | Osmolarity [2, 19]: 831 mosm/L H20 | Purity [2, 19]: 96.1 % area | Total NUC-3373 [2, 19]: 2857 mg | pH [2, 19]: 5.5 | Assay content NUC-3373 [2, 20]: 10.4 mg/mL | Osmolarity [2, 20]: 818 mosm/L H20 | Purity [2, 20]: 96.1 % area | Total NUC-3373 [2, 20]: 2913 mg | pH [2, 20]: 5.5 | Assay content NUC-3373 [2, 21]: 10.4 mg/mL | Osmolarity [2, 21]: 823 mosm/L H20 | Purity [2, 21]: 96.2 % area | Total NUC-3373 [2, 21]: 2913 mg | pH [2, 21]: 5.5 | Assay content NUC-3373 [2, 22]: 10.5 mg/mL | Osmolarity [2, 22]: 812 mosm/L H20 | Purity [2, 22]: 96.1 % area | Total NUC-3373 [2, 22]: 2941 mg | pH [2, 22]: 5.5 | Assay content NUC-3373 [2, 23]: 10.1 mg/mL | Osmolarity [2, 23]: 825 mosm/L H20 | Purity [2, 23]: 96.1 % area | Total NUC-3373 [2, 23]: 2829 mg | pH [2, 23]: 5.5 | Assay content NUC-3373 [2, 24]: 10.4 mg/mL | Osmolarity [2, 24]: 817 mosm/L H20 | Purity [2, 24]: 96.1 % area | Total NUC-3373 [2, 24]: 2913 mg | pH [2, 24]: 5.5 | Assay content NUC-3373 [2, 25]: 10.0 mg/mL | Osmolarity [2, 25]: 821 mosm/L H20 | Purity [2, 25]: 96.2 % area | Total NUC-3373 [2, 25]: 2801 mg | pH [2, 25]: 5.6 | Assay content NUC-3373 [2, 26]: 10.1 mg/mL | Osmolarity [2, 26]: 812 mosm/L H20 | Purity [2, 26]: 96.1 % area | Total NUC-3373 [2, 26]: 2829 mg | pH [2, 26]: 5.4 | Stability ([2]; aqueous infusion solutions at all dose strengths (1,000 mg, 2,000 mg, 3,000 mg in 250 ml 0.9% saline), up to 48 hours at 5° C. and 20° C.): stable
